Series [1] is described as follows: log P by HPLC on reversed phase columns (EEC directive 79/831 Annex V.A8). Format: physicochemical. The settings on record: Table 1, compounds of formula (I); method [a]: LC-MS at pH 2.7, 0.1% formic acid in water / acetonitrile.
For a further series, the system named is Pyrenophora teres. Kind of series: In vivo preventive test on Pyrenophora teres (net blotch on barley). The conditions noted are these: 500 ppm, preventive spray, barley plants, incubated 48 hours then 12 days. Here is the method:
Barley plants (“Plaisant” variety), sown in starter cups on a 50/50 peat soil-pozzolana substrate and grown at 22° C., are treated at the 1-leaf stage (10 cm height) by spraying with the active ingredient prepared as described above. Plants, used as controls, are treated with the mixture of acetone/tween/DMSO/water not containing the active material. After 24 hours, the plants are contaminated by spraying the leaves with an aqueous suspension of Pyrenophora teres spores (12 000 spores per ml). The spores are collected from a 12-day-old culture.

In another series the test system is Puccinia recondita. Kind of series: In vivo preventive test on Puccinia recondita (brown rust on wheat). The settings on record: 500 ppm, preventive spray, wheat plants, grading 12 days after contamination. How it is done: Plants, used as controls, are treated with the mixture of acetone/tween/DMSO/water not containing the active material. After 24 hours, the plants are contaminated by spraying the leaves with an aqueous suspension of Puccinia […] spores (100 000 spores per ml). […] Grading (% of efficacy) is carried out 12 days after the contamination, in comparison with the control plants.

The next series deals with Septoria tritici. Kind of series: In vivo preventive test on Septoria tritici (leaf spot on wheat). The conditions noted are these: 500 ppm, preventive spray, wheat plants, grading 24 days after contamination. How it is done: Wheat plants (“Scipion” variety), sown in starter cups on a 50/50 peat soil-pozzolana substrate and grown at 22° C., are treated at the 1-leaf stage (10 cm height) by spraying with the active ingredient prepared as described above. Plants, used as controls, are treated with the mixture of acetone/tween/DMSO/water not containing the active material. After 24 hours, the plants are contaminated by spraying the leaves with an aqueous suspension of cryopreserved Septoria tritici spores (500 000 spores per ml). […] Grading (% of efficacy) is carried out 24 days after the contamination, in comparison with the control plants.

The test system of the next series is Sphaerotheca fuliginea. Kind of series: In vivo preventive test on Sphaerotheca fuliginea (powdery mildew on cucurbits). The settings on record: 500 ppm, preventive spray, gherkin plants, grading 12 days after contamination. How it is done:
Gherkin plants (“Vert petit de Paris” variety), sown in starter cups on a 50/50 peat soil-pozzolana substrate and grown at 24° C., are treated at the Z11 cotyledon stage by spraying with the active ingredient prepared as described above. Plants, used as controls, are treated with the mixture of acetone/tween/DMSO/water not containing the active material. After 24 hours, the plants are contaminated by spraying the cotyledons with an aqueous suspension of Sphaerotheca fuliginea spores (100 000 spores per ml). The spores are collected from infected plants. The contaminated gherkin plants are incubated at about 20° C. and at 70-80% relative humidity. Grading (% of efficacy) is carried out 12 days after the contamination, in comparison with the control plants.

The next series has as its system Uromyces appendiculatus. Kind of series: In vivo preventive test on Uromyces appendiculatus (bean rust). The settings on record: 500 ppm, preventive spray, bean plants, grading 11 days after contamination. How it is done:
Bean plants (“Saxa” variety), sown in starter cups on a 50/50 peat soil-pozzolana substrate and grown at 24° C., are treated at the 2-leaf stage (9 cm height) by spraying with the active ingredient prepared as described above. Plants, used as controls, are treated with the mixture of acetone/tween/DMSO/water not containing the active material. After 24 hours, the plants are contaminated by spraying the leaves with an aqueous suspension of Uromyces appendiculatus spores (150 000 spores per ml). […] Grading (% of efficacy) is carried out 11 days after the contamination, in comparison with the control plants.

For the next series, the system named is Alternaria brassicae. Kind of series: In vivo preventive test on Alternaria brassicae (leaf spot on radish). The settings on record: 500 ppm, preventive spray, radish plants, grading 6 days after contamination. How it is done: Radish plants (“Pernod Clair” variety), sown in starter cups on a 50/50 peat soil-pozzolana substrate and grown at 17° C., are treated at the cotyledon stage by spraying with the active ingredient prepared as described above. Plants, used as controls, are treated with the mixture of acetone/tween/DMSO/water not containing the active material. After 24 hours, the plants are contaminated by spraying the cotyledons with an aqueous suspension of Alternaria brassicae spores (50 000 spores per ml). The spores are collected from a 15-day-old culture. […] Grading (% of efficacy) is carried out 6 days after the contamination, in comparison with the control plants.

As to `CC1CC2(CC2(Cl)Cl)c2cccc(NC(=O)c3cn(C)nc3C(F)F)c21` (stereo not drawn) [Example 3], the logP in series [1] is 3.46[a]. Moreover, the Eff. % is 81% with Pyrenophora teres; 94% with Puccinia recondita; 100% in the series on Septoria tritici; 100% with Sphaerotheca fuliginea; 100% in the series on Uromyces appendiculatus.
In the case of `CC1CC2(CC2(Cl)Cl)c2cccc(NC(=O)c3cn(C)nc3C(F)F)c21` (stereo not drawn) [Example 4], in series [1], the logP is 3.5[a]. Further, the Eff. % in the series on Puccinia recondita, in the series on Septoria tritici, in the series with Sphaerotheca fuliginea and with Uromyces appendiculatus was 100% throughout.
Take `Cn1cc(C(=O)Nc2cccc3c2CCC32OCCO2)c(C(F)F)n1` [Example 12]: in series [1], the logP was 1.9[a]. Besides, the Eff. % with Alternaria brassicae is listed as 86%; in the series on Puccinia recondita, 83%.
For the molecule `Cn1cc(C(=O)Nc2cccc3c2CCC32CC2)c(C(F)F)n1` [Example 17], the logP in series [1] is 2.96[a]. In addition, the Eff. % in the series on Pyrenophora teres came to 70%; in the series on Puccinia recondita it was 98%; with Uromyces appendiculatus, 100%.
Turning to `CC1CC(CC(C)(C)C)c2cccc(NC(=O)c3cn(C)nc3C(F)F)c21` (stereo not drawn) [Example 18], the logP in series [1] was 4.44[a]. Besides, the Eff. % is recorded as 83% in the series on Alternaria brassicae; 100% in the series on Puccinia recondita; 93% in the series with Septoria tritici; 100% in the series on Sphaerotheca fuliginea; 100% with Uromyces appendiculatus.
Turning to `CCCON=C1CC(C)c2c(NC(=O)c3c(C)nn(C)c3F)cccc21` (stereo not drawn) [Example 19], in series [1], the logP is 3.24[a]. The Eff. % with Pyrenophora teres was 75%; with Puccinia recondita, 81%; in the series on Sphaerotheca fuliginea, 89%; with Uromyces appendiculatus, 93%.
On to `CCC1(C)CCc2c(NC(=O)c3cn(C)nc3C(F)F)cccc21` (stereo not drawn) [Example 24], for which the logP in series [1] was 3.62[a]. The Eff. % in the series on Pyrenophora teres was found to be 80%; with Puccinia recondita, 98%; with Septoria tritici it was 92%; in the series on Sphaerotheca fuliginea, 98%; in the series on Uromyces appendiculatus, 97%.
Consider `CON=C1CC(C)c2c(NC(=O)c3c(C)nn(C)c3F)cccc21` (stereo not drawn) [Example 27], for which, in series [1], the logP is 2.33[a]. In addition, the Eff. % in the series with Alternaria brassicae is 75%; with Puccinia recondita it was 86%.
For `Cn1cc(C(=O)Nc2cccc3c2CCC3C(C)(C)C)c(C(F)F)n1` (stereo not drawn) [Example 28], in series [1], the logP is 3.94[a]. The Eff. % with Puccinia recondita came out at 100%; with Septoria tritici it was 86%; in the series on Sphaerotheca fuliginea, 100%; in the series with Uromyces appendiculatus, 100%.
Consider `CCON=C1CC(C)c2c(NC(=O)c3c(C)nn(C)c3F)cccc21` (stereo not drawn) [Example 29], for which the logP in series [1] is 2.76[a]. In addition, the results for the Eff. % in the series on Pyrenophora teres, with Puccinia recondita and in the series on Uromyces appendiculatus were 75%, 81% and 80%, respectively.
For the molecule `CCCON=C1CCc2c(NC(=O)c3cn(C)nc3C(F)F)cccc21` [Example 30], the logP in series [1] was 3.15[a]. In addition, the Eff. % is on record as 71% in the series with Puccinia recondita, 85% with Septoria tritici, 90% with Sphaerotheca fuliginea and 95% with Uromyces appendiculatus.
For `CC(C)CC1CCc2c(NC(=O)c3cn(C)nc3C(F)F)cccc21` (stereo not drawn) [Example 32], in that order: 4.11[a], 98%, 71%, 98% and 100%.
As to `CC1CC2(CC2)c2cccc(NC(=S)c3cn(C)nc3C(F)(F)F)c21` (stereo not drawn) [Example 41], the Eff. % was 75% with Alternaria brassicae, 100% with Puccinia recondita, 98% in the series with Sphaerotheca fuliginea and 100% in the series on Uromyces appendiculatus.
Turning to `CC1CC(CC(C)(C)C)c2cccc(NC(=S)c3cn(C)nc3C(F)F)c21` (stereo not drawn) [Example 42], the Eff. % in the series on Alternaria brassicae is recorded as 75%; with Puccinia recondita it was 98%; in the series on Septoria tritici, 88%; in the series with Sphaerotheca fuliginea, 100%; in the series with Uromyces appendiculatus, 100%.

The values are drawn from patent US9199941B2, “Pyrazole indanyl carboxamides” (BAYER CROPSCIENCE AG, priority 2012, dated 2015).
